Source: ChEMBL document CHEMBL1148998, “Limonoids from the seeds of Melia azedarach” (1986)

Tests used:
Vibrio cholerae [1] = assay: Antibacterial activity against Vibrio cholerae at 10 mg/10 ml dimethylformamide; assay type: functional
Klebsiella pneumoniae [2] = assay: Antibacterial activity against Klebsiella pneumoniae at 10 mg/10 ml dimethylformamide; assay type: functional
Salmonella typhimurium [3] = assay: Antibacterial activity against Salmonella Typhimurium at 10 mg/10 ml dimethylformamide; assay type: functional, Salmonella enterica subsp. enterica serovar Typhimurium
Escherichia coli [4] = assay: Antibacterial activity against Escherichia coli at 10 mg/10 ml dimethylformamide; assay type: functional
Vibrio cholerae [5] = assay: Antibacterial activity against Vibrio cholerae at 8 mg/10 ml dimethylformamide; assay type: functional
Vibrio cholerae [6] = assay: Antibacterial activity against Vibrio cholerae at 6 mg/10 ml dimethylformamide; assay type: functional
Vibrio cholerae [7] = assay: Antibacterial activity against Vibrio cholerae at 4 mg/10 ml dimethylformamide; assay type: functional
Vibrio cholerae [8] = assay: Antibacterial activity against Vibrio cholerae at 2 mg/10 ml dimethylformamide; assay type: functional
Klebsiella pneumoniae [9] = assay: Antibacterial activity against Klebsiella pneumoniae at 8 mg/10 ml dimethylformamide; assay type: functional
Klebsiella pneumoniae [10] = assay: Antibacterial activity against Klebsiella pneumoniae at 6 mg/10 ml dimethylformamide; assay type: functional
Klebsiella pneumoniae [11] = assay: Antibacterial activity against Klebsiella pneumoniae at 4 mg/10 ml dimethylformamide; assay type: functional
Klebsiella pneumoniae [12] = assay: Antibacterial activity against Klebsiella pneumoniae at 2 mg/10 ml dimethylformamide; assay type: functional
Salmonella typhimurium [13] = assay: Antibacterial activity against Salmonella Typhimurium at 8 mg/10 ml dimethylformamide; assay type: functional, Salmonella enterica subsp. enterica serovar Typhimurium
Salmonella typhimurium [14] = assay: Antibacterial activity against Salmonella Typhimurium at 6 mg/10 ml dimethylformamide; assay type: functional, Salmonella enterica subsp. enterica serovar Typhimurium
Salmonella typhimurium [15] = assay: Antibacterial activity against Salmonella Typhimurium at 4 mg/10 ml dimethylformamide; assay type: functional, Salmonella enterica subsp. enterica serovar Typhimurium
Salmonella typhimurium [16] = assay: Antibacterial activity against Salmonella Typhimurium at 2 mg/10 ml dimethylformamide; assay type: functional, Salmonella enterica subsp. enterica serovar Typhimurium
Escherichia coli [17] = assay: Antibacterial activity against Escherichia coli at 8 mg/10 ml dimethylformamide; assay type: functional
Escherichia coli [18] = assay: Antibacterial activity against Escherichia coli at 6 mg/10 ml dimethylformamide; assay type: functional
Escherichia coli [19] = assay: Antibacterial activity against Escherichia coli at 4 mg/10 ml dimethylformamide; assay type: functional
Escherichia coli [20] = assay: Antibacterial activity against Escherichia coli at 2 mg/10 ml dimethylformamide; assay type: functional

Row | SMILES | inhibition zone (IZ) (Vibrio cholerae [1]) | inhibition zone (IZ) (Klebsiella pneumoniae [2]) | inhibition zone (IZ) (Salmonella typhimurium [3]) | inhibition zone (IZ) (Escherichia coli [4]) | inhibition zone (IZ) (Vibrio cholerae [5]) | inhibition zone (IZ) (Vibrio cholerae [6]) | inhibition zone (IZ) (Vibrio cholerae [7]) | inhibition zone (IZ) (Vibrio cholerae [8]) | inhibition zone (IZ) (Klebsiella pneumoniae [9]) | inhibition zone (IZ) (Klebsiella pneumoniae [10]) | inhibition zone (IZ) (Klebsiella pneumoniae [11]) | inhibition zone (IZ) (Klebsiella pneumoniae [12]) | inhibition zone (IZ) (Salmonella typhimurium [13]) | inhibition zone (IZ) (Salmonella typhimurium [14]) | inhibition zone (IZ) (Salmonella typhimurium [15]) | inhibition zone (IZ) (Salmonella typhimurium [16]) | inhibition zone (IZ) (Escherichia coli [17]) | inhibition zone (IZ) (Escherichia coli [18]) | inhibition zone (IZ) (Escherichia coli [19]) | inhibition zone (IZ) (Escherichia coli [20])
1 | CN[C@@H]1[C@H](O[C@H]2[C@H](O[C@H]3[C@H](O)[C@@H](O)[C@H](N=C(N)N)[C@@H](O)[C@@H]3N=C(N)N)O[C@@H](C)[C@]2(O)C=O)O[C@@H](CO)[C@H](O)[C@H]1O [STREPTOMYCIN] | 12 mm | 10 mm | 9 mm | 8 mm | – | – | – | – | – | – | – | – | – | – | – | – | – | – | – | –
2 | CC(=O)OC1=C2C(C)(C)[C@@H](O[C@@H]3O[C@@H](C)[C@H](O)[C@@H](O)[C@H]3O)C=C[C@]2(C)[C@H]2[C@H](O)C[C@@]3(C)[C@H](c4ccoc4)C[C@H]4O[C@]43[C@]2(C)C1=O | 20 mm | 18 mm | 16 mm | 15 mm | 18 mm | 17 mm | 15 mm | 13 mm | 16 mm | 14 mm | 12 mm | 10 mm | 15 mm | 13 mm | 12 mm | 11 mm | 14 mm | 12 mm | 11 mm | 10 mm
